Results from patent US20130245061A1, “PHARMACEUTICAL COMPOSITIONS” (NOVARTIS AG, priority 2010, published 2013).

Tests used:
[1] = pH-dependent solubility of the therapeutic compound; assay type: physicochemical; settings: pH higher than 3
[2] = permeability of the therapeutic compound; assay type: in vitro ADME
[3] = 2-Step Dissolution Test (pH 2 then pH 6.8); assay type: physicochemical; settings: pH 6.8, second step; FIG. 2
Protocol: Capsules containing either Compound A alone, Formulation Variant 1 or Variant 2 are placed in 900 mL of pH 2 HCl and then stirred in a USP Apparatus II rotating at 50 rpm for 10 to 100 minutes (with fast stir from about minute 60 to minute 90). At approximately the 100 minute time point, this medium is adjusted to pH 6.8 and to a volume of 1000 ml and then stirred in a USP Apparatus II rotating at 50 rpm. Samples are filtered using a 100 μm Varian full flow filter and analyzed by UV.
Capsules containing either Compound A alone, Formulation Variants 1 or 2 are separately evaluated using a 2-Step Dissolution Test. This analysis compared the dissolution profile of capsules containing 68.5 mg per unit of 2-methyl-2-[4-(3-methyl-2-oxo-8-quinolin-3-yl-2,3-dihydro-imidazo[4,5-c]quinolin-1-yl)-phenyl]-propionitrile monotosylate salt (which is equivalent to 50 mg of the free base of 2-methyl-2-[4-(3-methyl-2-oxo-8-quinolin-3-yl-2,3-dihydro-imidazo[4,5-c]quinolin-1-yl)-phenyl]-propionitrile) at pH 2 and pH 6.8.
For this analysis, capsules containing either Compound A alone, Formulation Variant 1 or Variant 2 are placed in 900 mL of pH 2 HCl and then stirred in a USP Apparatus II rotating at 50 rpm for 10-100 minutes (with fast stir from about minute 60 to minute 90). […] Samples are filtered using a 100 μm Varian Full Flow filter and analyzed by HPLC.

- solubility [1]: approximately 0%
- permeability [2]: low
- drug release [3]: approximately 0%
Compound: Cn1c(=O)n(-c2ccc(C(C)(C)C#N)cc2)c2c3cc(-c4cnc5ccccc5c4)ccc3ncc21 [Compound A, 2-methyl-2-[4-(3-methyl-2-oxo-8-quinolin-3-yl-2,3-dihydro-imidazo[4,5-c]quinolin-1-yl)-phenyl]-propionitrile]
